# Where two headings read alike, the source gives them in different places.
# Experiments:
# cattle [1] = test: Oral administration (gavage) to cattle: serum NEFA and SUN levels; type: in vivo, cattle (Angus/Angus cross steer calves); settings: 1 mg per kilogram body weight oral gavage, mean of five animals; for change in vivo at 1 mg/kg: Bos taurus
# Description: In the present example, fifteen head of Angus/Angus cross steer calves, weighing approximately 484 pounds (220 kg) initially to 604 pounds (274 kg) by the end of these three trials, were placed in pens in the cattle facilities, at 5 calves per pen. Standard vaccination and coccidal control were administered.
# Calves were fed ad libitum twice daily, approximately 10-15 pounds (4.54-6.81 kg)/day. The feeding times were staggered once treatment was initiatedto ensure that all calves were fed approximately one hour before the treatments were administered and blood samples were obtained. During the A.M. treatment period, the cattle were prevented from returning to feed until the +180 minute blood sample had been collected.
# Treatments were administered once a day via oral gavage. The treatments contained 1 mg of test compound per kilogram body weight and were administered in a 50/50 PEG 200/water vehicle, followed with a flush of 20 mls of 50/50 PEG 200/water.
# A baseline blood sample (T=0) was taken immediately before the oral gavage treatment was administered. At 90 minutes post-treatment (T+90 min) another blood sample was taken. The cattle were returned to their designated pens until 180 minutes post-treatment (T+180 min), when a third blood sample was collected. The calves were not allowed access to their feed until they had completed the 180 minute blood sample. Additional blood samples were collected from each calf at 24 and 48 hours post treatment.
# All blood samples were taken from the jugular vein and placed into serum tubes. Serum was assayed on an IL Monarch analyzer. Blood samples were collected pretreatment (T=0), 90 minutes post-treatment (T+90 min), 180 minutes post-treatment (T+180 min) and 24 hours post-treatment (T+24 h) and 48 hours post-treatment (T+48 h). Sera at T=0, T+90 min, T+180 min, T+24 h, and T+48 h were analyzed for NEFA and SUN.
# cattle [2] = test: Intravenous administration to cattle: serum NEFA and SUN levels; type: in vivo, cattle (Angus/Angus cross calves); settings: mean of five animals; for Δ % SUN 24 Hours (percent decrease in serum urea nitrogen compared with baseline T=0) / ΔNEFA 24 Hours (increase in NEFA in blood compared with baseline T=0): 40 μg per kilogram intravenously at 6:30 A.M. and 2:30 P.M., 24 hours post treatment; for ΔNEFA 15 Min. (increase in NEFA in blood compared with baseline T=0): 40 μg per kilogram intravenously, 15 minutes post treatment
# Description: Angus/Angus cross steer calves, both heifers and steers, weighing approximately 282 pounds (128 kg) initially to 788 pounds (358 kg) over the course of these studies, were placed in pens at 5 calves per pen. The cattle were acclimated to the pens for at least 1 week prior to initiating the study.
# Calves were fed ad libitum twice daily, (approximately 6-15 pounds (2.7-6.8 kg)/day). During the treatment day, in the A.M. period, the feeding times were staggered to ensure that all animals were fed approximately one hour before the treatments were administered. During the P.M. treatment period, the cattle were fed immediately after receiving the P.M. injection.
# After taking a pretreatment (T=0) blood sample from each animal, 40 μg per kilogram of a test compound was administered intravenously in the jugular vein at 6:30 A.M. and 2:30 P.M. Each test compound was administered at a concentration of 1.00-1.25 mg/ml in a treatment vehicle that was a 50/50 mixture of polyethylene glycol 200/water.
# A blood sample was taken at fifteen minutes post-treatment (T+15 min). The calves were returned to their respective pens until their next treatment, approximately eight hours later. The next morning at 6:30 A.M. a blood sample was collected from all calves at 24 hours post-treatment (T+24h). All blood samples were analyzed for the non-esterified fatty acid level (NEFA) and serum urea nitrogen level (SUN). The post-treatment NEFA and SUN levels in each individual animal were compared with the levels found before treatment.
# chickens = test: Anabolic effects when administered in feed to chickens; type: in vivo, chicken (Peterson-Hubbard male chicks)
# Description: Approximately 1500 Peterson-Hubbard day-old male chicks were used in a randomized, complete block design with 6 treatments (Control; Clenbuterol at 1 PPM; Compound 1 at 3 and 15 PPM (mg/kg feed); and Compound 5 at 3 and 15 PPM) using pen location in the barn as the blocking factor. Treatments were randomly allotted to pens within each block for a total of 6 pens per block and 6 blocks in the wing. Each treatment consisted of 6 pens, with 10 birds per pen, during the experimental period.
# Day-of-age birds were obtained from Pine Manor Hatchery in Goshen, Ind. Approximately 40 birds per pen were setup at random upon receipt. On day 30 of the growout period, all birds were weighed and the 15 birds closest to the block mean were selected. These birds were allowed to acclimate until day 35 of age. On this day, all remaining birds were weighed again, and the 10 birds/pen closest to the block mean were chosen for the treatment phase. Birds were provided ad libitum access to feed and water throughout the trial. All birds were fed a 23% crude protein corn-soy ration from day 1 until day 18 of age. The feed was changed to a 20% crude protein corn-soy ration for day 18 to day 49. The treatment feed was mixed using the 20% crude protein corn-soy basal ration. Treatments were administered in the feed from day 35 through day 49. Feed consumption was calculated over the entire 14 day treatment period. Birds were weighed at trial completion (day 49), and transported to Purdue University meat laboratory for slaughter and carcass measurements on day 50. Weights of the hot carcass, fat pad, and viscera were taken on all animals. Weights of the bone-in, skin-on breast, and the bone-in, skin-on leg quarters were taken only on the control treatment and the high doses of both experimental compounds.
# [3] = 24 hours post treatment, read-out: Δ % SUN 24 Hours (percent decrease in serum urea nitrogen compared with baseline T=0)
# [4] = 48 hours post treatment, read-out: Δ % SUN 48 Hours (percent decrease in serum urea nitrogen compared with baseline T=0)
# [5] = 3 PPM in feed, 14 day treatment period
# [6] = 3 PPM in feed, 14 day treatment period (day 35 to 49)
# [7] = 15 PPM in feed, 14 day treatment period
# [8] = 15 PPM in feed, 14 day treatment period (day 35 to 49)
# [9] = 1 PPM in feed, 14 day treatment period
SMILES,ΔNEFA 24 Hours (increase in NEFA in blood compared with baseline T=0) (cattle [1]; 24 hours post treatment),change in vivo at 1 mg/kg (cattle [1]; [3]),change in vivo at 1 mg/kg (cattle [1]; [4]),Δ % SUN 24 Hours (percent decrease in serum urea nitrogen compared with baseline T=0) (cattle [2]),ΔNEFA 24 Hours (increase in NEFA in blood compared with baseline T=0) (cattle [2]),ΔNEFA 15 Min. (increase in NEFA in blood compared with baseline T=0) (cattle [2]),improvement of feed efficiency (chickens; [5]),increase in weight gain over control (chickens; [6]),improvement of feed efficiency (chickens; [7]),increase in weight gain over control (chickens; [8]),improvement in feed conversion versus control (chickens; [9]),increase in weight gain over control (chickens; [9])
CC(C)(Cc1ccc(Oc2ncccc2C(N)=O)cc1)NC[C@H](O)COc1cccc2[nH]c(=S)[nH]c12,101 µmol/L,-17%,-13%,–,–,–,–,–,–,–,–,–
CC(C)(Cc1ccc(Oc2ccc(C(=O)N3CCOCC3)cn2)cc1)NC[C@H](O)COc1cccc2[nH]ncc12 [Compound 4],1129 µmol/L,-47%,-48%,−40.1%,1251.8 µmol/L,194.8 µmol/L,–,–,–,–,–,–
CC(C)(Cc1ccc(Oc2ncccc2C(N)=O)cc1)NC[C@H](O)COc1cccc2[nH]c(=O)[nH]c12,10 µmol/L,-22%,-19%,–,–,–,–,–,–,–,–,–
CC(C)(Cc1ccc(Oc2ccc(C(N)=O)cn2)cc1)NC[C@H](O)COc1cccc2[nH]ncc12 [Compound 1],329 µmol/L,-38%,-32%,−28.7%,820.9 µmol/L,554.4 µmol/L,not improved,3.54%,4.67%,11.50%,–,–
CC(C)(Cc1ccc(Oc2ccc(C#N)cn2)cc1)NC[C@H](O)COc1cccc2[nH]ncc12 [Compound 3],349 µmol/L,-58%,-57%,−24.7%,1069.3 µmol/L,269.4 µmol/L,–,–,–,–,–,–
CC(C)(C)NCC(O)c1cc(Cl)c(N)c(Cl)c1 (stereo not shown) [Clenbuterol],–,–,–,–,–,–,–,–,–,–,did not show an improvement,3.54%
CC(C)(Cc1ccc(Oc2ccc(C(=O)N3CCOCC3)cn2)cc1)NC[C@H](O)COc1cccc2[nH]ccc12,-47 µmol/L,-45%,-28%,–,–,–,–,–,–,–,–,–
CC(C)(Cc1ccc(Oc2ccc(C#N)cn2)cc1)NC[C@H](O)COc1cccc2[nH]c(=O)[nH]c12,18 µmol/L,2%,5%,–,–,–,–,–,–,–,–,–
CC(C)(Cc1ccc(Oc2ccc(S(C)(=O)=O)cc2)cc1)NC[C@H](O)COc1cccc2[nH]ncc12 [Compound 5],1216 µmol/L,-33%,-60%,−25.4%,1541.9 µmol/L,397.3 µmol/L,not improved,2.65%,3.27%,8.85%,–,–
CC(C)(Cc1ccc(Oc2ccc(C(N)=O)cc2)cc1)NC[C@H](O)COc1cccc2[nH]c(=S)[nH]c12,17 µmol/L,-8%,-12%,–,–,–,–,–,–,–,–,–
CC(C)(Cc1ccc(Oc2ccc(S(C)(=O)=O)cc2)cc1)NC[C@H](O)COc1cccc2[nH]c(=O)[nH]c12,-6 µmol/L,-10%,-6%,–,–,–,–,–,–,–,–,–
CC(C)(Cc1ccc(Oc2ccc(C#N)cn2)cc1)NC[C@H](O)COc1cccc2[nH]ccc12,63 µmol/L,-55%,-40%,–,–,–,–,–,–,–,–,–
CC(C)(Cc1ccc(Oc2ccc(S(C)(=O)=O)cc2)cc1)NC[C@H](O)COc1cccc2[nH]c(=S)[nH]c12,37 µmol/L,-1%,-5%,–,–,–,–,–,–,–,–,–
CC(C)(Cc1ccc(Oc2ccc(C(=O)N3CCOCC3)cn2)cc1)NC[C@H](O)COc1cccc2[nH]c(=S)[nH]c12,6 µmol/L,-18%,-15%,–,–,–,–,–,–,–,–,–
CC(C)(Cc1ccc(Oc2ncccc2C(N)=O)cc1)NC[C@H](O)COc1cccc2[nH]ccc12,-30 µmol/L,-42%,-30%,–,–,–,–,–,–,–,–,–

# — patent publication US6534504B1, “Indazolyloxy propanolamines for improving livestock production” (Eli Lilly and Company, priority 1999, dated 2003)
